2 compounds from US9795602B2, “Polycyclic-carbamoylpyridone compounds and their pharmaceutical use” (Gilead Sciences, Inc., priority 2014, dated 2017) can be followed below.

The structures appear in SMILES notation.

In one data set the test system is wild-type HIV-1. Nature of the data set: Antiviral assay in MT-2 cells, wild-type HIV-1. The format is cell-based. Particulars: Human immunodeficiency virus 1, 120 h; MT2 cells, wild-type HIV-1, 5 days; read-out: wt. On the procedure:
(§1) For the antiviral assay utilizing MT-2 cells, 50 μL of 2× test concentration of 3-fold serially diluted compound in culture medium with 10% FBS was added to each well of a 96-well plate (9 concentrations) in triplicate. MT-2 cells were infected with wild-type or mutant variants of HIV-1 for 3 hours using a volume of viral inoculum determined to produce 90% cell killing. Fifty microliters of infected cell suspension in culture medium with 10% FBS (˜1.5×10^4 cells) was then added to each well containing 50 μL of serially diluted compound. The plates with HIV-infected cultures were then incubated at 37° C. for 5 days in the presence of the tested compounds. After 5 days of incubation, 100 μL of CellTiter-Glo™ Reagent (catalog # G7571, Promega Biosciences, Inc., Madison, Wis.) was added to each well. Cell lysis was carried out by incubating at room temperature for 10 min followed by a chemiluminescence read-out.
(§2) The chemiluminescence readout from the 10-point antiviral dose response was analyzed directly by curve fitting with equation (I) to determine the EC50.
(§3) where y=Cell Survival, M=maximum cell survival enabled by drug protection, H=baseline cell survival without drug protection, n=Hill coefficient of the antiviral dose response, m=Hill coefficient of the cytotoxicity dose response, and [I]=inhibitor concentration.
(§4) EC50 values (mean±standard deviation) were calculated from at least three independent experiments performed in triplicate. The fold-change in antiviral activity of tested compounds was calculated as a ratio of the mean EC50 for each mutant virus divided by the mean EC50 of the control WT virus.

For a further data set, the system named is HIV-1 E138K/Q148K. The format is cell-based. As to conditions: MT2 cells; mean EC50 mutant / mean EC50 wt. On the procedure: as §1, §2, §3, §4
For another data set, the system named is HIV-1 E92Q/N155H. Type of data set: cell-based. As to conditions: MT2 cells; mean EC50 mutant / mean EC50 wt. On the procedure:
as §1, §2, §3, §4

The next data set deals with HIV-1 G140S/Q148R. The format is cell-based. Particulars: MT2 cells; mean EC50 mutant / mean EC50 wt. How it is done: as §1, §2, §3, §4
A further data set concerns HIV-1 N155H/Q148R. Type of data set: cell-based. Particulars: MT2 cells; mean EC50 mutant / mean EC50 wt. On the procedure: as §1, §2, §3, §4
The nature of data set [1]: Cytotoxicity (CC50) in MT4 cells, mock-infected. As to conditions: human, mock-infected. The format is cell-based. The method in brief:
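Mock-infected MT4 cells (2000/well) exposed to compounds for 5 days at 37 °C; cell viability then read as chemiluminescence from CellTiter-Glo after brief room-temperature lysis.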

Data set [2] can be described thus: Plasma protein binding (equilibrium dialysis). The format is in vitro ADME. Particulars: human, plasma (sodium EDTA) dialysed against buffer; 2 μM in plasma vs. buffer, 24 hours at 37° C.; read-out: % Free HP/Buffer. On the procedure: Plasma protein binding was determined using a HTD96b equilibrium dialyzer with a plate base, stainless steel pressure plate and Teflon bock. 9 Teflon bars, labeled sequentially from A through I, were assembled with two stainless steel connecting rods. Membranes were placed between two Teflon bars, with the membrane placed approximately 2 mm below the top edge of the bar and the lower membrane edge overlapped the bottom of all wells. The membrane was soaked for about 20 minutes in water, about 20 minutes in ethanol (30/70 v/v) and rinsed with water three times to remove the ethanol. It was soaked in PBS for at least 30 minutes. Plasma in sodium EDTA (Bioreclamation or equivalent) was used. The Plasma (not pH-adjusted) was stored at −80° C. and thawed at room temperature before use. The stock solution of the compounds tested was at 200 μM in DMSO. The quench solution used was 50 nM of an internal standard in 100% ACN. To prepare a 2 μM solution of the compound tested in plasma, 5 μL of a 200 μM stock solution was added to 495 μL of blank plasma. 100 μL plasma was added with 2 μM of test compound into one side of the well. 100 μL of buffer (for plasma vs. buffer) was added into another side of the well. The 96-well plate was covered using an adhesive sealing film and incubated for 24 hours at 37° C. under slow rotation. This procedure was replicated for each compound. 50 μL of plasma sample was put into a 96 well plate, 50 μL of buffer was added. 50 μL of buffer was put into a 96 well plate. 50 μL of plasma was added. 300 μL of quench solution was added and the plate sealed and shaken for 15 minutes. The material was centrifuged for 30 minutes at 3000 RPM and ˜250 μL was transferred into a short plate. The samples were analyzed by LC/MS. The resulting data is shown in the last row of Table 3 as “% Free” which corresponds to the percentage of compound not protein bound.
(In general: Equilibrium dialysis compares concentrations on both sides of a semipermeable membrane.)

Data set [3] in a line: Pharmacokinetics after oral administration to male SD rats. Particulars: Sprague-Dawley, plasma, rat, oral gavage 0.5 mg/kg, solution, read-out: % F (solution). Type of data set: in vivo. How it is done: Pharmacokinetic analysis was performed on compounds 25b and 39 following intravenous or oral administration to rats.
The test compounds were formulated in 5% Ethanol, 55% PEG 300, and 40% water at 0.1 mg/mL for IV infusion and for oral dosing.
Each dosing group consisted of 3 male, Sprague-Dawley rats. At dosing, the animals weighed an average of 0.25 kg. The animals were fasted overnight prior to dose administration and up to 4 hr after dosing.
For the IV infusion group, the test article was administered by intravenous infusion over 30 min. The rate of infusion was adjusted according to the body weight of each animal to deliver a dose of 0.5 mg/kg. For the oral dosing group, the test article was administered by oral gavage at 5 mL/kg for a dose of 0.5 mg/kg.
For pharmacokinetic analysis of orally administered compounds, serial venous blood samples (approximately 0.3 mL each) were taken from each animal at time points of 0, 0.25, 0.50, 1.0, 2.0, 4.0, 6.0, 8.0, 12.0 24.0, 48.0 and 72 hours after dosing. Blood samples were collected, prepared and analyzed in a similar way to the intravenous studies described above. Non-compartmental pharmacokinetic analysis was performed on the plasma concentration-time data. In Table 2, F (%) refers to oral bioavailability.

Consider `CCN1C(=O)c2c(O)c(=O)c(C(=O)NCc3ccc(F)c(Cl)c3F)cn2[C@H]2CCOC[C@H]21` [Compound 39], for which the EC50 in the data set on wild-type HIV-1 came out at 0.0009 µM. Further, in the data set with HIV-1 E138K/Q148K, the “Resistance fold shift E138K/Q148K vs. wild type” value stood at 1.5 fold shift. Further, the “Resistance fold shift E92Q/N155H vs. wild type” value in the data set on HIV-1 E92Q/N155H stood at 2.3 fold shift. In the data set with HIV-1 G140S/Q148R, the “Resistance fold shift G140S/Q148R vs. wild type” value is given as 1.8 fold shift. Moreover, in the data set with HIV-1 N155H/Q148R, the “Resistance fold shift N155H/Q148R vs. wild type” value was 2.8 fold shift. In addition, in data set [1], it took 12.8 µM to reach half-maximal cytotoxicity (CC50 at 5 days). In data set [2], the fraction unbound at 24 h, 2 µM stood at 0.0067. Besides, the bioavailability in data set [3] amounted to 15%.

Take `CCN1C(=O)c2c(O)c(=O)c(C(=O)NCc3ccc(F)c(Cl)c3F)cn2[C@H]2CCO[C@H]21` [Compound 25b]: the EC50 in the data set with wild-type HIV-1 was 0.0014 µM. Moreover, the “Resistance fold shift E138K/Q148K vs. wild type” value in the data set on HIV-1 E138K/Q148K was 2.3 fold shift. Also, in the data set with HIV-1 E92Q/N155H, the “Resistance fold shift E92Q/N155H vs. wild type” value is on record as 2.2 fold shift. Further, the “Resistance fold shift G140S/Q148R vs. wild type” value in the data set with HIV-1 G140S/Q148R stood at 1.9 fold shift. Besides, the “Resistance fold shift N155H/Q148R vs. wild type” value in the data set on HIV-1 N155H/Q148R turned out to be 2.2 fold shift. Further, the 50% cytotoxic concentration (CC50) (in general, the concentration giving 50% cytotoxicity) at 5 days in data set [1] came to 26.7 µM. Also, the fraction unbound at 24 h, 2 µM in data set [2] was less than 0.001. In addition, the bioavailability in data set [3] came out at 39%.
